Values joined by “and” are separate entries in the source; they are usually repeats but may differ in a detail not shown here. Equal entries are not always repeated. Inconclusive results and toxic doses are left out.
System: P388 leukemia ip, CD2F1 mice, survival T/C
Assay: NCI In Vivo Anticancer Drug Screen. Data for tumor model P388 Leukemia (intraperitoneal) in CD2F1 (CDF1) mice
Settings: endpoint: median survival time, higher = longer survival
Method in brief: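 Mice carrying the transplanted tumor received test compound or vehicle. Survival was recorded in each group, and the value is the treated-group measurement divided by that of the vehicle-treated control group.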

[1] = dose: 50.0 mg/kg/injection, schedule: Q01DX009 (ip), vehicle: Klucel (hydroxypropylcellulose) (HPC)
[2] = dose: 60.0 mg/kg/injection, schedule: Q01DX005 (ip), vehicle: Klucel (hydroxypropylcellulose) (HPC)
[3] = dose: 120.0 mg/kg/injection, schedule: Q01DX005 (ip), vehicle: Klucel (hydroxypropylcellulose) (HPC)
[4] = dose: 25.0 mg/kg/injection, schedule: Q01DX005 (ip), vehicle: Klucel (hydroxypropylcellulose) (HPC)
[5] = dose: 50.0 mg/kg/injection, schedule: Q01DX005 (ip), vehicle: Klucel (hydroxypropylcellulose) (HPC)
[6] = dose: 100.0 mg/kg/injection, schedule: Q01DX005 (ip), vehicle: Klucel (hydroxypropylcellulose) (HPC)
[7] = dose: 200.0 mg/kg/injection, schedule: Q01DX005 (ip), vehicle: Klucel (hydroxypropylcellulose) (HPC)

Compound: COc1c(C)cc(C)c(CO)c1-c1c(CO)c(C)cc(C)c1OC
- T/C (dose: 100.0 mg/kg/injection, schedule: Q01DX001 (ip), vehicle: Klucel (hydroxypropylcellulose) (HPC)): 99 % of control
- T/C (dose: 200.0 mg/kg/injection, schedule: Q01DX001 (ip), vehicle: Klucel (hydroxypropylcellulose) (HPC)): 101 % of control
- T/C (dose: 400.0 mg/kg/injection, schedule: Q01DX001 (ip), vehicle: Klucel (hydroxypropylcellulose) (HPC)): 99 % of control

Compound: CC(=O)C1CC[C@@]2(C)C(CC[C@H]3[C@@H]4CCC[C@H]([C@H](C)O)[C@@]4(C)CC[C@@H]32)C1 (some centres undefined)
- T/C (dose: 12.5 mg/kg/injection, schedule: Q01DX009 (ip), vehicle: Klucel (hydroxypropylcellulose) (HPC)): 91 % of control
- T/C (dose: 25.0 mg/kg/injection, schedule: Q01DX009 (ip), vehicle: Klucel (hydroxypropylcellulose) (HPC)): 91 % of control
- T/C [1]: 88 % of control

Compound: CN(C)c1ccc(SC(=S)NCc2ccccc2)cc1
- T/C [2]: 88 % of control
- T/C [3]: 88 % of control

Compound: CSc1nc(NC2OCC(O)C(O)C2O)c(C=O)c(=O)[nH]1 (centres undefined)
- T/C (dose: 15.0 mg/kg/injection, schedule: Q01DX005 (ip), vehicle: saline with Tween-80): 97 % of control
- T/C (dose: 30.0 mg/kg/injection, schedule: Q01DX005 (ip), vehicle: saline with Tween-80): 109 % of control
- T/C (dose: 60.0 mg/kg/injection, schedule: Q01DX005 (ip), vehicle: saline with Tween-80): 95 % of control

Compound: Cc1c(O)c(=O)ccn1CCO
- T/C (dose: 50.0 mg/kg/injection, schedule: Q01DX005 (ip), vehicle: saline): 102 % of control and 104 % of control
- T/C (dose: 100.0 mg/kg/injection, schedule: Q01DX005 (ip), vehicle: saline): 100 % of control and 106 % of control
- T/C (dose: 200.0 mg/kg/injection, schedule: Q01DX005 (ip), vehicle: saline): 117 % of control and 124 % of control

Compound: COc1cc(NC(=O)CCl)ccc(=O)c1
- T/C (dose: 12.5 mg/kg/injection, schedule: Q01DX009 (ip), vehicle: saline with Tween-80): 95 % of control
- T/C (dose: 25.0 mg/kg/injection, schedule: Q01DX009 (ip), vehicle: saline with Tween-80): 113 % of control

Compound: COC(=O)c1ccccc1NC(CCN1CCN(c2ccccc2)CC1)=NC(C)(C)C
- T/C [1]: 100 % of control
- T/C (dose: 100.0 mg/kg/injection, schedule: Q01DX009 (ip), vehicle: Klucel (hydroxypropylcellulose) (HPC)): 102 % of control

Compound: CC(C)C(NSC(=O)C1CCCN1Sc1ccc([N+](=O)[O-])cc1[N+](=O)[O-])C(=O)OCc1ccccc1 (centres undefined)
- T/C [4]: 92 % of control
- T/C [5]: 94 % of control
- T/C [6]: 86 % of control and 93 % of control
- T/C [7]: 93 % of control

Compound: C1=Cc2cc(CN3CCOCC3)ccc2Nc2ccccc21
- T/C [2]: 99 % of control
- T/C [3]: 89 % of control

Compound: C[CH2][Ge]([CH2]C)[CH2]C.C[CH2][Ge]([Cl])[CH2]C.C[CH2][Ge][CH2]C
- T/C (dose: 50.0 mg/kg/injection, schedule: Q01DX009 (ip), vehicle: saline): 104 % of control
- T/C (dose: 100.0 mg/kg/injection, schedule: Q01DX009 (ip), vehicle: saline): 103 % of control
- T/C (dose: 200.0 mg/kg/injection, schedule: Q01DX009 (ip), vehicle: saline): 103 % of control

Compound: C1=CC2C3CCC(C3)C2C1 (centres undefined)
- T/C (dose: 100.0 mg/kg/injection, schedule: Q04DX003 (ip), vehicle: saline with Tween-80): 113 % of control
- T/C (dose: 200.0 mg/kg/injection, schedule: Q04DX003 (ip), vehicle: saline with Tween-80): 100 % of control
- T/C (dose: 400.0 mg/kg/injection, schedule: Q04DX003 (ip), vehicle: saline with Tween-80): 104 % of control

Compound: CN1C(=O)c2ccc3c4ccc5c6c(ccc(c7ccc(c2c37)C1=O)c64)C(=O)OC5=O
- T/C [5]: 101 % of control
- T/C [6]: 101 % of control
- T/C [7]: 103 % of control

Compound: CCN(CC)c1ncnc2c1ncn2Cc1ccc(C(=O)OC)cc1
- T/C (dose: 50.0 mg/kg/injection, schedule: Q01DX005 (ip), vehicle: saline with Tween-80): 100 % of control
- T/C (dose: 100.0 mg/kg/injection, schedule: Q01DX005 (ip), vehicle: saline with Tween-80): 100 % of control
- T/C (dose: 200.0 mg/kg/injection, schedule: Q01DX005 (ip), vehicle: saline with Tween-80): 94 % of control

Compound: Cc1cc(N/N=C/c2ccnc3ccccc23)c2cc3c(cc2n1)OCO3
- T/C (dose: 12.5 mg/kg/injection, schedule: Q01DX005 (ip), vehicle: Klucel (hydroxypropylcellulose) (HPC)): 90 % of control and 93 % of control
- T/C [4]: 100 % of control and 105 % of control
- T/C [5]: 103 % of control and 108 % of control

Compound: CC1=CC2C(O)(CC3(COC(=O)/C=C/c4ccccc4)OC3C3C4C(C)(C)C4(OC(=O)/C=C/c4ccccc4)C(OC(=O)/C=C/c4ccccc4)C(C)C32O)C1=O (centres undefined)
- T/C (dose: 0.2 mg/kg/injection, schedule: Q01DX005 (ip), vehicle: saline + alcohol): 100 % of control
- T/C (dose: 0.4 mg/kg/injection, schedule: Q01DX005 (ip), vehicle: saline + alcohol): 100 % of control
- T/C (dose: 0.8 mg/kg/injection, schedule: Q01DX005 (ip), vehicle: saline + alcohol): 100 % of control
- T/C (dose: 1.6 mg/kg/injection, schedule: Q01DX005 (ip), vehicle: saline + alcohol): 98 % of control
- T/C (dose: 3.2 mg/kg/injection, schedule: Q01DX005 (ip), vehicle: saline + alcohol): 104 % of control

From PubChem BioAssay AID330 (DTP/NCI, 2004)
